The values that follow come from US20020176882A1, “Additive the improvement and/or stabilization of the keeping quality of microbially perishable products” (priority 1997, published 2002).

For assay [1], the system named is aerobic microorganisms (total germ count). Kind of assay: quantitative suspension assay, total germ count. The class given is cell-based. The settings on record: control 10^8/ml. The text has this:
(§1) Bacteriological assay methods for additives quantitative suspension assay II (suspension test)
(§2) Microorganisms: aerobic microorganisms (total germ count), Enterobacteriaceae, Enterococci, Lactobacilli, yeasts, molds. These methods are capable of determining the effects of the additives as a function of dosage and duration of action using different microorganisms on different nutrient media.
(§3) Quantitative suspension assay II—suspension test a) Inoculate test germ suspension with the desired test germ, e.g., 10^6/ml, expose for 1-60 min. Place desired formulation to be tested into desiganted germ suspension tubes (different percentages). Await end of exposure times and pour or inoculate into the appropriate agar plates, depending on the germ. […]
(§4) b) Treat the test germ suspension with the desired formulation to be tested (see a) prior to inoculating the test germs (see a). Await end of exposure times and then inoculate with the respective test germs, and inoculate or pour into the appropriate agar plates depending on the test germ.

A further assay deals with Enterobacteria. The experiment in a line: quantitative suspension assay, Enterobacteria. The format is cell-based, Enterobacteriaceae. The settings on record: control 10^8/ml.
Description: as §1, §2, §3, §4

A further assay relates to Enterococci. The experiment in a line: quantitative suspension assay, Enterococci. The format is cell-based. The following applies: control 10^8/ml.
Description: as §1, §2, §3, §4

Another assay has as its system Lactobacilli. Kind of assay: quantitative suspension assay, Lactobacilli. The format is cell-based. The settings on record: control 10^5/ml.
Description: as §1, §2, §3, §4

A further assay concerns yeasts. The experiment in a line: quantitative suspension assay, yeasts. The following applies: control 10^5/ml. The format is cell-based.
Description: as §1, §2, §3, §4

For another assay, the system named is molds. The experiment in a line: quantitative suspension assay, molds. The class given is cell-based. The settings on record: control 10^5/ml.
Description: as §1, §2, §3, §4
Also: test concentration or dose not given here.

Regarding `CC(O)C(=O)O` (stereo not drawn) [Lactic acid], the total germ count in assay [1] (5 min exp. time), in assay [1] (15 min exp. time) and in assay [1] (60 min exp. time) was 10^7 /ml each time. In addition, the Enterobacteria germ count in the assay with Enterobacteria (5 min exp. time), in the assay with Enterobacteria (15 min exp. time) and in the assay on Enterobacteria (60 min exp. time) was 10^6 /ml in each case. In addition, the Enterococci germ count in the assay with Enterococci (5 min exp. time), in the assay on Enterococci (15 min exp. time) and in the assay on Enterococci (60 min exp. time) was 10^7 /ml in each case. Moreover, the Lactobacilli germ count was 10^5 /ml in the assay with Lactobacilli (5 min exp. time), 10^4 /ml in the assay with Lactobacilli (15 min exp. time) and 10^4 /ml with Lactobacilli (60 min exp. time). Also, the yeasts germ count in the assay with yeasts (5 min exp. time), in the assay on yeasts (15 min exp. time) and in the assay with yeasts (60 min exp. time) was 10^5 /ml throughout. In addition, the molds germ count in the assay on molds (5 min exp. time), in the assay on molds (15 min exp. time) and with molds (60 min exp. time) was 10^5 /ml throughout.
Consider tannin [Formulation 1a], for which the total germ count in assay [1] (5 min exp. time), in assay [1] (15 min exp. time) and in assay [1] (60 min exp. time) was 10^6 /ml in each case. Moreover, the Enterobacteria germ count with Enterobacteria (5 min exp. time), in the assay on Enterobacteria (15 min exp. time) and in the assay with Enterobacteria (60 min exp. time) was 10^6 /ml each time. Moreover, the Enterococci germ count in the assay on Enterococci (5 min exp. time) is recorded as 10^7 /ml; in the assay with Enterococci (15 min exp. time), 10^6 /ml; in the assay on Enterococci (60 min exp. time), 10^6 /ml. Further, the Lactobacilli germ count in the assay on Lactobacilli (5 min exp. time) is 10^5 /ml; with Lactobacilli (15 min exp. time), 10^4 /ml; in the assay with Lactobacilli (60 min exp. time) it was 10^4 /ml. Besides, the yeasts germ count with yeasts (5 min exp. time), in the assay with yeasts (15 min exp. time) and in the assay on yeasts (60 min exp. time) was 10^4 /ml throughout. Besides, the molds germ count in the assay on molds (5 min exp. time), with molds (15 min exp. time) and with molds (60 min exp. time) was 10^4 /ml in each case.
As for `CC(O)CO` (stereo not drawn) [Propylene glycol], the total germ count in assay [1] (5 min exp. time), in assay [1] (15 min exp. time) and in assay [1] (60 min exp. time) was 10^9 /ml in each case. For the same compound, the Enterobacteria germ count in the assay on Enterobacteria (5 min exp. time), in the assay with Enterobacteria (15 min exp. time) and with Enterobacteria (60 min exp. time) was 10^8 /ml throughout. For the same compound, the Enterococci germ count with Enterococci (5 min exp. time), in the assay with Enterococci (15 min exp. time) and in the assay with Enterococci (60 min exp. time) was 10^8 /ml throughout. For the same compound, the Lactobacilli germ count in the assay on Lactobacilli (5 min exp. time), with Lactobacilli (15 min exp. time) and with Lactobacilli (60 min exp. time) was 10^5 /ml throughout. Besides, the yeasts germ count in the assay with yeasts (5 min exp. time), with yeasts (15 min exp. time) and in the assay on yeasts (60 min exp. time) was 10^5 /ml in each case. For the same compound, the molds germ count in the assay on molds (5 min exp. time), in the assay with molds (15 min exp. time) and in the assay with molds (60 min exp. time) was 10^5 /ml each time.
As to `OCC(O)CO` [Glycerol], the total germ count in assay [1] (5 min exp. time) is given as 10^6 /ml; in assay [1] (15 min exp. time), 10^8 /ml; in assay [1] (60 min exp. time), 10^8 /ml. The Enterobacteria germ count in the assay on Enterobacteria (5 min exp. time), with Enterobacteria (15 min exp. time) and in the assay with Enterobacteria (60 min exp. time) was 10^7 /ml in each case. Besides, the Enterococci germ count in the assay on Enterococci (5 min exp. time), in the assay with Enterococci (15 min exp. time) and in the assay with Enterococci (60 min exp. time) was 10^8 /ml throughout. The Lactobacilli germ count in the assay with Lactobacilli (5 min exp. time), with Lactobacilli (15 min exp. time) and in the assay on Lactobacilli (60 min exp. time) was 10^5 /ml throughout. For the same compound, the yeasts germ count in the assay on yeasts (5 min exp. time), in the assay with yeasts (15 min exp. time) and in the assay on yeasts (60 min exp. time) was 10^5 /ml each time. Also, the molds germ count in the assay on molds (5 min exp. time), in the assay with molds (15 min exp. time) and in the assay with molds (60 min exp. time) was 10^5 /ml each time.
With `OCc1ccccc1` [Benzyl alcohol], the results for the total germ count in assay [1] (5 min exp. time), in assay [1] (15 min exp. time) and in assay [1] (60 min exp. time) were 10^8 /ml, 10^7 /ml and 10^7 /ml, respectively. Also, the Enterobacteria germ count in the assay on Enterobacteria (5 min exp. time), in the assay on Enterobacteria (15 min exp. time) and in the assay with Enterobacteria (60 min exp. time) was 10^7 /ml in each case. Moreover, the Enterococci germ count in the assay on Enterococci (5 min exp. time) is listed as 10^8 /ml; with Enterococci (15 min exp. time) it was 10^7 /ml; in the assay with Enterococci (60 min exp. time) it was 10^7 /ml. Moreover, the Lactobacilli germ count in the assay with Lactobacilli (5 min exp. time), in the assay with Lactobacilli (15 min exp. time) and with Lactobacilli (60 min exp. time) was 10^5 /ml in each case. Further, the yeasts germ count is reported as 10^5 /ml with yeasts (5 min exp. time), 10^4 /ml in the assay with yeasts (15 min exp. time) and 10^4 /ml with yeasts (60 min exp. time). For the same compound, the molds germ count was 10^5 /ml with molds (5 min exp. time), 10^4 /ml in the assay with molds (15 min exp. time) and 10^4 /ml in the assay with molds (60 min exp. time).
